Drawing on patent US11771738B2 (Zoetis Services LLC, priority 2018, dated 2023), this text covers minimal effective concentration and DiMf/DiL4 for eight molecules.

Like-named read-outs stand apart in the source and are kept apart here.

What all share (type): cell-based
Experiment [1] relates to third stage larvae of Haemonchus contortus. Nature of the experiment: Haemonchus contortus, Larvae Stage 3 (HcL3) In Vitro Assay. The following applies: Haemonchus contortus, 96 h.
The test system of a further experiment is D. immitis L4 larvae. Nature of the experiment: Dirofilaria immitis, L4 Stage (DiL4) In Vitro Assay. The following applies: for minimal effective concentration: Dirofilaria immitis, 72 h, read-out: DiL4 MED, Minimum Effective Dose, D. immitis L4 larvae motility, in vitro; for DiMf/DiL4: larval stage selectivity, ratio of DiMf MED to DiL4 MED.
Experiment [2] deals with microfilariae of Dirofilaria immitis. Nature of the experiment: Dirofilaria immitis, Microfilaria (DiMf) In Vitro Assay. The following applies: Dirofilaria immitis, 72 h, read-out: DiMf MED, Minimum Effective Dose, D. immitis microfilariae motility, in vitro.
Where [3] appears, read: read-out: HcL3 MED, Minimum Effective Dose, H. contortus third stage larvae, approximately 96 hours.
Setting [4] is: read-out: HcL3 MED, Haemonchus contortus third stage larvae in vitro, class mark appended to the Ex # in Table 3.
[5] abbreviates: read-out: HcL3 MED, approximately 96 hours incubation, multiple-resistant field isolate.

`Cc1ccc(Cc2ccc(C[C@H]3OC(=O)[C@H](CC(C)C)N(C)C(=O)[C@@H](C)OC(=O)[C@H](CC(C)C)N(C)C(=O)[C@@H](Cc4ccc(Cc5ccc(C)nc5C)cc4)OC(=O)[C@H](CC(C)C)N(C)C(=O)[C@@H](C)OC(=O)[C@H](CC(C)C)N(C)C3=O)cc2)c(C)n1` [Example 3-240, (3S,6R,9S,12R,15S,18R,21S,24R)-6,18-bis(4-((2,6-dimethylpyridin-3-yl)methyl)benzyl)-3,9,15,21-tetraisobutyl-4,10,12,16,22,24-hexamethyl-1,7,13,19-tetraoxa-4,10,16,22-tetraazacyclotetracosan-2,5,8,11,14,17,20,23-octaone]: the minimal effective concentration stood at 5.7 µM in experiment [1] (setting [3]), 0.001 µM in the experiment with D. immitis L4 larvae and 0.02 µM in experiment [2]. Also, the DiMf/DiL4 with D. immitis L4 larvae amounted to 20.
`Cc1[nH]ncc1Cc1ccc(C[C@H]2OC(=O)[C@H](CC(C)C)N(C)C(=O)[C@@H](C)OC(=O)[C@H](CC(C)C)N(C)C(=O)[C@@H](Cc3ccc(Cc4cn[nH]c4C)cc3)OC(=O)[C@H](CC(C)C)N(C)C(=O)[C@@H](C)OC(=O)[C@H](CC(C)C)N(C)C2=O)cc1` [Example 3-243, (3S,6R,9S,12R,15S,18R,21S,24R)-3,9,15,21-tetraisobutyl-4,6,10,16,18,22-hexamethyl-12,24-bis(4-((5-methyl-1H-pyrazol-4-yl)methyl)benzyl)-1,7,13,19-tetraoxa-4,10,16,22-tetraazacyclotetracosan-2,5,8,11,14,17,20,23-octaone]: the figures for the minimal effective concentration (in experiment [1] (setting [3]); with D. immitis L4 larvae; in experiment [2]) were 7.5 µM, 0.001 µM and 0.001 µM, respectively. The DiMf/DiL4 in the experiment on D. immitis L4 larvae is recorded as 1.
`COc1cnc(C(C)(F)c2ccc(C[C@H]3OC(=O)[C@H](CC(C)C)N(C)C(=O)[C@@H](C)OC(=O)[C@H](CC(C)C)N(C)C(=O)[C@@H](Cc4ccc(C(C)(F)c5cnc(OC)cn5)cc4)OC(=O)[C@H](CC(C)C)N(C)C(=O)[C@@H](C)OC(=O)[C@H](CC(C)C)N(C)C3=O)cc2)cn1` (stereo partly drawn) [Example 3-252, (3S,6R,9S,12R,15S,18R,21S,24R)-6,18-bis(4-(1-fluoro-1-(5-methoxypyrazin-2-yl)ethyl)benzyl)-3,9,15,21-tetraisobutyl-4,10,12,16,22,24-hexamethyl-1,7,13,19-tetraoxa-4,10,16,22-tetraazacyclotetracosan-2,5,8,11,14,17,20,23-octaone]: the values for the minimal effective concentration (in experiment [1] (setting [3]); in the experiment with D. immitis L4 larvae; in experiment [2]) were above 42 µM, 0.0007 µM and 0.02 µM, respectively. Further, the DiMf/DiL4 in the experiment with D. immitis L4 larvae was determined as 28.6.
On to `CCn1nccc1Cc1ccc(C[C@H]2OC(=O)[C@H](CC(C)C)N(C)C(=O)[C@@H](C)OC(=O)[C@H](CC(C)C)N(C)C(=O)[C@@H](Cc3ccc(Cc4ccnn4CC)cc3)OC(=O)[C@H](CC(C)C)N(C)C(=O)[C@@H](C)OC(=O)[C@H](CC(C)C)N(C)C2=O)cc1` [Example 3-253, (3S,6R,9S,12R,15S,18R,21S,24R)-6,18-bis(4-((1-ethyl-1H-pyrazol-5-yl)methyl)benzyl)-3,9,15,21-tetraisobutyl-4,10,12,16,22,24-hexamethyl-1,7,13,19-tetraoxa-4,10,16,22-tetraazacyclotetracosan-2,5,8,11,14,17,20,23-octaone], for which the minimal effective concentration in experiment [1] (setting [4]) is below 1 µM; in experiment [1] (setting [3]) it was 1 µM; in experiment [1] (setting [5]), at most 1 µM; in the experiment on D. immitis L4 larvae it was 0.001 µM; in experiment [2] it was 0.0003 µM. Further, the DiMf/DiL4 with D. immitis L4 larvae was 0.3.
In the case of `CC(C)C[C@H]1C(=O)O[C@H](Cc2ccc(Cc3cnsc3)cc2)C(=O)N(C)[C@@H](CC(C)C)C(=O)O[C@H](C)C(=O)N(C)[C@@H](CC(C)C)C(=O)O[C@H](Cc2ccc(Cc3cnsc3)cc2)C(=O)N(C)[C@@H](CC(C)C)C(=O)O[C@H](C)C(=O)N1C` [Example 3-254, (3S,6R,9S,12R,15S,18R,21S,24R)-3,9,15,21-tetraisobutyl-6,18-bis(4-(isothiazol-4-ylmethyl)benzyl)-4,10,12,16,22,24-hexamethyl-1,7,13,19-tetraoxa-4,10,16,22-tetraazacyclotetracosan-2,5,8,11,14,17,20,23-octaone], the figures for the minimal effective concentration (in experiment [1] (setting [3]); with D. immitis L4 larvae; in experiment [2]) were 10 µM, 0.001 µM and 0.003 µM, respectively. Besides, the DiMf/DiL4 in the experiment on D. immitis L4 larvae is 3.
As to `COC(c1ccc(C[C@H]2OC(=O)[C@H](CC(C)C)N(C)C(=O)[C@@H](C)OC(=O)[C@H](CC(C)C)N(C)C(=O)[C@@H](Cc3ccc(C(OC)c4ccc(O)nc4)cc3)OC(=O)[C@H](CC(C)C)N(C)C(=O)[C@@H](C)OC(=O)[C@H](CC(C)C)N(C)C2=O)cc1)c1ccc(O)nc1` (stereo partly drawn) [Example 3-259, (3S,6R,9S,12R,15S,18R,21S,24R)-6,18-bis(4-((6-hydroxypyridin-3-yl)(methoxy)methyl)benzyl)-3,9,15,21-tetraisobutyl-4,10,12,16,22,24-hexamethyl-1,7,13,19-tetraoxa-4,10,16,22-tetraazacyclotetracosan-2,5,8,11,14,17,20,23-octaone], the minimal effective concentration in experiment [1] (setting [4]) was 1 to 3.3 µM; in experiment [1] (setting [3]) it was 3.3 µM; in the experiment on D. immitis L4 larvae, 0.0005 µM; in experiment [2], 0.01 µM. Moreover, in the experiment on D. immitis L4 larvae, the DiMf/DiL4 worked out at 20.
In the case of `COc1ncccc1C(C)c1ccc(C[C@H]2OC(=O)[C@H](CC(C)C)N(C)C(=O)[C@@H](C)OC(=O)[C@H](CC(C)C)N(C)C(=O)[C@@H](Cc3ccc(C(C)c4cccnc4OC)cc3)OC(=O)[C@H](CC(C)C)N(C)C(=O)[C@@H](C)OC(=O)[C@H](CC(C)C)N(C)C2=O)cc1` (stereo partly drawn) [Example 3-261, (3S,6R,9S,12R,15S,18R,21S,24R)-3,9,15,21-tetraisobutyl-6,18-bis(4-(1-(2-methoxypyridin-3-yl)ethyl)benzyl)-4,10,12,16,22,24-hexamethyl-1,7,13,19-tetraoxa-4,10,16,22-tetraazacyclotetracosan-2,5,8,11,14,17,20,23-octaone], the values for the minimal effective concentration (in experiment [1] (setting [3]); in the experiment on D. immitis L4 larvae; in experiment [2]) were above 100 µM, below 0.0001 µM and 0.03 µM, respectively. Besides, the DiMf/DiL4 in the experiment on D. immitis L4 larvae is above 300.
Regarding `CC(C)C[C@H]1C(=O)O[C@H](Cc2ccc(Cc3ccnn3C3CC3)cc2)C(=O)N(C)[C@@H](CC(C)C)C(=O)O[C@H](C)C(=O)N(C)[C@@H](CC(C)C)C(=O)O[C@H](Cc2ccc(Cc3ccnn3C3CC3)cc2)C(=O)N(C)[C@@H](CC(C)C)C(=O)O[C@H](C)C(=O)N1C` [Example 3-268, (3S,6R,9S,12R,15S,18R,21S,24R)-6,18-bis(4-((1-cyclopropyl-1H-pyrazol-5-yl)methyl)benzyl)-3,9,15,21-tetraisobutyl-4,10,12,16,22,24-hexamethyl-1,7,13,19-tetraoxa-4,10,16,22-tetraazacyclotetracosan-2,5,8,11,14,17,20,23-octaone], the minimal effective concentration was below 1 µM in experiment [1] (setting [4]); 1 µM in experiment [1] (setting [3]); at most 1 µM in experiment [1] (setting [5]); 0.0005 µM in the experiment with D. immitis L4 larvae; 0.002 µM in experiment [2]. In addition, the DiMf/DiL4 in the experiment on D. immitis L4 larvae came to 4.
